Results published in patent US8927738B2, “2-arylimidazole derivatives as PDE10A enzyme inhibitors” (H. Lundbeck A/S, priority 2009, dated 2015).

Key:
PDE10A enzyme = PDE10A enzyme (Homo sapiens (Human), UniProt Q9Y233); test: PDE10A inhibition assay; assay type: biochemical; details: tritium labeled cAMP substrate 5 nM
Procedure: Active PDE10A enzyme is prepared in a number of ways for use in PDE assays (Loughney, K. et al. Gene 1999, 234, 109-117; Fujishige, K. et al. Eur J Biochem. 1999, 266, 1118-1127 and Soderling, S. et al. Proc. Natl. Acad. Sci. 1999, 96, 7071-7076). PDE10A can be expressed as full-length proteins or as truncated proteins, as long as they express the catalytic domain. PDE10A can be prepared in different cell types, for example insect cells or E. coli. An example of a method to obtain catalytically active PDE10A is as follows: The catalytic domain of human PDE10A (amino acids 440-779 from the sequence with accession number NP 006652) is amplified from total human brain total RNA by standard RT-PCR and is cloned into the BamH1 and Xho1 sites of the pET28a vector (Novagen). Expression in coli is performed according to standard protocols. Briefly, the expression plasmids are transformed into the BL21(DE3) E. coli strain, and 50 mL cultures inoculated with the cells allowed to grow to an OD600 of 0.4-0.6 before protein expression is induced with 0.5 mM IPTG. Following induction, the cells are incubated overnight at room temperature, after which the cells are collected by centrifugation. Cells expressing PDE10A are resuspended in 12 mL (50 mM TRIS-HCl-pH8.0, 1 mM MgCl2 and protease inhibitors). The cells are lysed by sonication, and after all cells are lysed, TritonX100 is added according to Novagen protocols.
A PDE10A assay may for example, be performed as follows: The assay is performed in 60 uL samples containing a fixed amount of the relevant PDE enzyme (sufficient to convert 20-25% of the cyclic nucleotide substrate), a buffer (50 mM HEPES7.6; 10 mM MgCl2; 0.02% Tween20), 0.1 mg/ml BSA, 225 pCi of ^3H-labelled cyclic nucleotide substrate, tritium labeled cAMP to a final concentration of 5 nM and varying amounts of inhibitors. Reactions are initiated by addition of the cyclic nucleotide substrate, and reactions are allowed to proceed for one hr at room temperature before being terminated through mixing with 15 uL 8 mg/mL yttrium silicate SPA beads (Amersham). The beads are allowed to settle for one hr in the dark before the plates are counted in a Wallac 1450 Microbeta counter. The measured signal can be converted to activity relative to an uninhibited control (100%) and IC50 values can be calculated using the Xlfit extension to EXCEL.

rats [1] = details: cited from earlier work
rats [2] = details: cited from earlier work; remark: listed apart in the source
rats [3] = details: cited from earlier work; remark: listed apart in the source

Sequence of PDE10A enzyme (Q9Y233 716-1055): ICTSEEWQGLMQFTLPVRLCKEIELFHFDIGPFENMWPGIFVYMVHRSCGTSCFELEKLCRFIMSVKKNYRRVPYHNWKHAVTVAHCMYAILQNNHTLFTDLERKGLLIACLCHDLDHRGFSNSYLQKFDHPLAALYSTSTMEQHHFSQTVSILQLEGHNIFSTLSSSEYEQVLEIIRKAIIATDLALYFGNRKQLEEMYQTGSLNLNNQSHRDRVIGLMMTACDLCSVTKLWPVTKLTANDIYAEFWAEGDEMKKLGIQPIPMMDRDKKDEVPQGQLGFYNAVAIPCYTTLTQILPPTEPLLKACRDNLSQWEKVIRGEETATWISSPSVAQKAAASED

Compound	IC50 (PDE10A enzyme)	other results
Cc1ncc(C)n2nc(CCc3cn(C)c(-c4ccco4)n3)nc12 [2-[2-(2-Furan-2-yl-1-methyl-1H-imidazol-4-yl)-ethyl]-5,8-dimethyl-[1,2,4]triazolo[1,5-a]pyrazine]	1.1 nM	–
Cc1ccc(C)n2nc(CCc3cn(C)c(-c4ccco4)n3)nc12 [2-[2-(2-Furan-2-yl-1-methyl-1H-imidazol-4-yl)-ethyl]-5,8-dimethyl-[1,2,4]triazolo[1,5-a]pyridine]	0.75 nM	–
Cc1ncc(C)n2nc(CCc3c[nH]c(-c4ccco4)n3)nc12 [2-[2-(2-Furan-2-yl-1H-imidazol-4-yl)-ethyl]-5,8-dimethyl-[1,2,4]triazolo[1,5-a]pyrazine]	0.97 nM	–
Cc1ccc(C)n2nc(CCc3c[nH]c(-c4ccco4)n3)nc12 [2-[2-(2-Furan-2-yl-1H-imidazol-4-yl)-ethyl]-5,8-dimethyl-[1,2,4]triazolo[1,5-a]pyridine]	0.62 nM	–
Cc1ncc(C)n2nc(CCc3c[nH]c(-c4ccoc4)n3)nc12 [2-[2-(2-Furan-3-yl-1H-imidazol-4-yl)-ethyl]-5,8-dimethyl-[1,2,4]triazolo[1,5-a]pyrazine]	0.27 nM	–
Cc1ccc(C)n2nc(CCc3c[nH]c(-c4ccoc4)n3)nc12 [2-[2-(2-Furan-3-yl-1H-imidazol-4-yl)-ethyl]-5,8-dimethyl-[1,2,4]triazolo[1,5-a]pyridine]	0.65 nM	–
Cc1ncc(C)n2nc(CCc3c[nH]c(-c4ccc(F)cc4)n3)nc12 [2-{2-[2-(4-Fluoro-phenyl)-1H-imidazol-4-yl]-ethyl}-5,8-dimethyl-[1,2,4]triazolo[1,5-a]pyrazine]	12 nM	–
Cc1ncc(C)n2nc(CCc3cn(C)c(-c4ccccc4)n3)nc12 [5,8-Dimethyl-2-[2-(1-methyl-2-phenyl-1H-imidazol-4-yl)-ethyl]-[1,2,4]triazolo[1,5-a]pyrazine]	45 nM	–
Cc1ncc(C)n2nc(CCc3cn(C)c(-c4nccs4)n3)nc12 [5,8-Dimethyl-2-[2-(1-methyl-2-thiazol-2-yl-1H-imidazol-4-yl)-ethyl]-[1,2,4]triazolo[1,5-a]pyrazine]	7.7 nM	–
Cc1ncc(C)n2nc(CCc3cn(C)c(-c4cscn4)n3)nc12 [5,8-Dimethyl-2-[2-(1-methyl-2-thiazol-4-yl-1H-imidazol-4-yl)-ethyl]-[1,2,4]triazolo[1,5-a]pyrazine]	11 nM	–
Cc1ncc(C)n2nc(CCc3cn(C)c(-c4cncs4)n3)nc12 [5,8-Dimethyl-2-[2-(1-methyl-2-thiazol-5-yl-1H-imidazol-4-yl)-ethyl]-[1,2,4]triazolo[1,5-a]pyrazine]	22 nM	–
Cc1ncc(C)n2nc(CCc3cn(C)c(-c4cccs4)n3)nc12 [5,8-Dimethyl-2-[2-(1-methyl-2-thiophen-2-yl-1H-imidazol-4-yl)-ethyl]-[1,2,4]triazolo[1,5-a]pyrazine]	1 nM	–
Cc1ncc(C)n2nc(CCc3c[nH]c(-c4ccccc4)n3)nc12 [5,8-Dimethyl-2-[2-(2-phenyl-1H-imidazol-4-yl)-ethyl]-[1,2,4]triazolo[1,5-a]pyrazine]	4.2 nM	–
Cc1ncc(C)n2nc(CCc3c[nH]c(-c4nccs4)n3)nc12 [5,8-Dimethyl-2-[2-(2-thiazol-2-yl-1H-imidazol-4-yl)-ethyl]-[1,2,4]triazolo[1,5-a]pyrazine]	0.63 nM	–
Cc1ccc(C)n2nc(CCc3c[nH]c(-c4nccs4)n3)nc12 [5,8-Dimethyl-2-[2-(2-thiazol-2-yl-1H-imidazol-4-yl)-ethyl]-[1,2,4]triazolo[1,5-a]pyridine]	1.6 nM	–
Cc1ncc(C)n2nc(CCc3c[nH]c(-c4cscn4)n3)nc12 [5,8-Dimethyl-2-[2-(2-thiazol-4-yl-1H-imidazol-4-yl)-ethyl]-[1,2,4]triazolo[1,5-a]pyrazine]	3.5 nM	–
Cc1ccc(C)n2nc(CCc3c[nH]c(-c4cscn4)n3)nc12 [5,8-Dimethyl-2-[2-(2-thiazol-4-yl-1H-imidazol-4-yl)-ethyl]-[1,2,4]triazolo[1,5-a]pyridine]	3.5 nM	–
Cc1ncc(C)n2nc(CCc3c[nH]c(-c4cncs4)n3)nc12 [5,8-Dimethyl-2-[2-(2-thiazol-5-yl-1H-imidazol-4-yl)-ethyl]-[1,2,4]triazolo[1,5-a]pyrazine]	6.5 nM	–
Cc1ccc(C)n2nc(CCc3c[nH]c(-c4cncs4)n3)nc12 [5,8-Dimethyl-2-[2-(2-thiazol-5-yl-1H-imidazol-4-yl)-ethyl]-[1,2,4]triazolo[1,5-a]pyridine]	3.1 nM	–
Cc1ncc(C)n2nc(CCc3c[nH]c(-c4cccs4)n3)nc12 [5,8-Dimethyl-2-[2-(2-thiophen-2-yl-1H-imidazol-4-yl)-ethyl]-[1,2,4]triazolo[1,5-a]pyrazine]	0.4 nM	–
Cc1ccc(C)n2nc(CCc3c[nH]c(-c4cccs4)n3)nc12 [5,8-Dimethyl-2-[2-(2-thiophen-2-yl-1H-imidazol-4-yl)-ethyl]-[1,2,4]triazolo[1,5-a]pyridine]	0.34 nM	–
Cc1ccc(-c2nc(CCc3nc4c(C)ncc(C)n4n3)cn2C)o1 [5,8-Dimethyl-2-{2-[1-methyl-2-(5-methyl-furan-2-yl)-1H-imidazol-4-yl]-ethyl}-[1,2,4]triazolo[1,5-a]pyrazine]	3.5 nM	–
CCc1ccc(C)n2nc(CCc3cn(C)c(-c4ccccc4)n3)nc12 [8-Ethyl-5-methyl-2-[2-(1-methyl-2-phenyl-1H-imidazol-4-yl)-ethyl]-[1,2,4]triazolo[1,5-a]pyridine]	23 nM	–
COc1ccc(C)n2nc(CCc3cn(C)c(-c4ccccc4)n3)nc12 [8-Methoxy-5-methyl-2-[2-(1-methyl-2-phenyl-1H-imidazol-4-yl)-ethyl]-[1,2,4]triazolo[1,5-a]pyridine]	79 nM	–
COc1ccc(C)n2nc(CCc3cn(C)c(-c4cccs4)n3)nc12 [8-Methoxy-5-methyl-2-[2-(1-methyl-2-thiophen-2-yl-1H-imidazol-4-yl)-ethyl]-[1,2,4]triazolo[1,5-a]pyridine]	9 nM	–
COc1ccc(C)n2nc(CCc3c[nH]c(-c4ccccc4)n3)nc12 [8-Methoxy-5-methyl-2-[2-(2-phenyl-1H-imidazol-4-yl)-ethyl]-[1,2,4]triazolo[1,5-a]pyridine]	5.9 nM	–
COc1ccc(Cc2nccc3cc(OC)c(OC)cc23)cc1OC [Papaverine, papaverine]	–	reduction of amphetamine induced hyperactivity (rats [1]): insignificant; catalepsy caused on its own (rats [2]; papaverine alone): did not cause catalepsy on its own; effect on the cataleptic effect of haloperidol (rats [2]; with the D2 receptor antagonist haloperidol): potentiated the cataleptic effect; hyperactivity induced by PCP (rats [3]): reduced hyperactivity
